Several values for one entry are separate records, joined by “and”; a condition that tells them apart may be missing. Equal values may be shown once.
Tests used:
Assay type in all cases: in vivo
Setaria viridis = assay: greenhouse post-emergence treatment, SETVI; settings: 21 DAT, SETVI
Method in brief: (§1)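 Greenhouse test in humus-containing (~3.0%) loamy sand at species-dependent temperatures of 10-25° C. or 20-35° C.; treatments applied in water. Damage rated visually after 2–4 weeks (0 = none, 100 = complete destruction or no emergence).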

Bromus sterilis = assay: greenhouse post-emergence treatment, BROST
Method in brief: as §1

Poa annua = assay: greenhouse post-emergence treatment, POAAN
Method in brief: (§2)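 Test plants reached 3 to 15 cm before being sprayed with components A, B and, where applicable, C as emulsion concentrates in water. After 2 to 4 weeks at species-dependent temperatures, injury was rated 0–100.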

Alopecurus myosuroides = assay: greenhouse post-emergence treatment, ALOMY
Method in brief: as §1

Brachiaria decumbens = assay: greenhouse post-emergence treatment, BRADC
Method in brief: as §2

Polygonum convolvulus = assay: greenhouse post-emergence treatment, POLCO
Method in brief: (§3)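 Scale 0–100 damage rating (100 = complete destruction of above-ground parts, 0 = normal growth), read 2 to 4 weeks after post-emergence application of aqueous spray liquor to plants 3–15 cm tall.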

Matricaria chamomilla = assay: greenhouse post-emergence treatment, MATCH
Method in brief: as §3

[1] = 20 DAT, Ex. 26 solo 62.5 gai/ha

## COC(=O)c1nc(C2CC2)ncc1-c1ccc(F)cc1Cl [Ex. 26]
Setaria viridis; Ex. 26 solo, 250 gai/ha
  % activity: 15%
Setaria viridis; solo Ex. 26 62.5 gai/ha
  % activity: 10%
Setaria viridis; solo Ex. 26 125 gai/ha
  % activity: 10%
Bromus sterilis; 20 DAT, BROST, Ex. 26 solo 125 gai/ha
  % activity: 60% and 35%
Bromus sterilis; 20 DAT, BROST, Ex. 26 solo 250 gai/ha
  % activity: 65%
Bromus sterilis; [1]
  % activity: 0%
Bromus sterilis; 20 DAT, Ex. 26 solo 250 gai/ha
  % activity: 35% and 55% and 30%
Bromus sterilis; 21 DAT, Ex. 26 solo 125 gai/ha
  % activity: 5%
Bromus sterilis; 21 DAT, Ex. 26 solo 250 gai/ha
  % activity: 35%
Bromus sterilis; BROST, Ex. 26 solo 125 gai/ha, 20 DAT
  % activity: 60% and 35% and 40%
Bromus sterilis; BROST, Ex. 26 solo 250 gai/ha, 20 DAT
  % activity: 65%
Bromus sterilis; Ex. 26 solo 62.5 gai/ha, 20 DAT, BROST
  % activity: 0%
Bromus sterilis; Ex. 26 solo 125 gai/ha, 21 DAT, BROST
  % activity: 5%
Bromus sterilis; Ex. 26 solo 250 gai/ha, 21 DAT, BROST
  % activity: 35%
Bromus sterilis; Ex. 26 solo, 125 gai/ha, 20 DAT, BROST
  % activity: 5%
Bromus sterilis; Ex. 26 solo, 125 gai/ha, 21 DAT, BROST
  % activity: 15%
Bromus sterilis; Ex. 26 solo, 250 gai/ha, 21 DAT, BROST
  % activity: 25%
Poa annua; 20 DAT, Ex. 26 solo 250 gai/ha
  % activity: 70%
Poa annua; 20 DAT, POAAN, Ex. 26 solo 125 gai/ha
  % activity: 75% and 70%
Poa annua; 20 DAT, POAAN, Ex. 26 solo 250 gai/ha
  % activity: 80%
Poa annua; 21 DAT, Ex. 26 solo 125 gai/ha
  % activity: 65%
Poa annua; 21 DAT, Ex. 26 solo 250 gai/ha
  % activity: 75%
Poa annua; Ex. 26 solo 62.5 gai/ha, 21 DAT, POAAN
  % activity: 35%
Poa annua; Ex. 26 solo, 125 gai/ha, 20 DAT, POAAN
  % activity: 40%
Poa annua; Ex. 26 solo, 125 gai/ha, 21 DAT, POAAN
  % activity: 40%
Poa annua; Ex. 26 solo, 250 gai/ha, 20 DAT, POAAN
  % activity: 70%
Poa annua; POAAN, 21 DAT, solo Ex. 26 62.5 gai/ha
  % activity: 30%
Poa annua; POAAN, Ex. 26 solo 125 gai/ha, 20 DAT
  % activity: 70%
Poa annua; POAAN, Ex. 26 solo 250 gai/ha, 20 DAT
  % activity: 60%
Alopecurus myosuroides; 20 DAT, ALOMY, Ex. 26 solo 62.5 gai/ha
  % activity: 65%
Alopecurus myosuroides; 20 DAT, ALOMY, Ex. 26 solo 125 gai/ha
  % activity: 75%
Alopecurus myosuroides; 20 DAT, ALOMY, Ex. 26 solo 250 gai/ha
  % activity: 75%
Alopecurus myosuroides; 21 DAT, Ex. 26 solo 125 gai/ha
  % activity: 65%
Alopecurus myosuroides; 21 DAT, Ex. 26 solo 250 gai/ha
  % activity: 75%
Alopecurus myosuroides; ALOMY, Ex. 26 solo 125 gai/ha, 20 DAT
  % activity: 75% and 70%
Alopecurus myosuroides; ALOMY, Ex. 26 solo 250 gai/ha, 20 DAT
  % activity: 75%
Alopecurus myosuroides; Ex. 26 solo 62.5 gai/ha, 21 DAT, ALOMY
  % activity: 40%
Alopecurus myosuroides; Ex. 26 solo 125 gai/ha, 20 DAT, ALOMY (pinoxaden table)
  % activity: 73%
Alopecurus myosuroides; Ex. 26 solo 125 gai/ha, 20 DAT, ALOMY (pyridate table)
  % activity: 70%
Alopecurus myosuroides; Ex. 26 solo 250 gai/ha, 20 DAT, ALOMY (pyridate table)
  % activity: 75%
Brachiaria decumbens; 20 DAT, BRADC, Ex. 26 solo 125 gai/ha
  % activity: 30% and 55%
Brachiaria decumbens; 20 DAT, BRADC, Ex. 26 solo 250 gai/ha
  % activity: 60%
Brachiaria decumbens; [1]
  % activity: 0%
Brachiaria decumbens; 20 DAT, Ex. 26 solo 250 gai/ha
  % activity: 35% and 50% and 30%
Brachiaria decumbens; BRADC, 21 DAT, solo Ex. 26 62.5 gai/ha
  % activity: 0%
Brachiaria decumbens; BRADC, 21 DAT, solo Ex. 26 125 gai/ha
  % activity: 10%
Brachiaria decumbens; BRADC, 21 DAT, solo Ex. 26 250 gai/ha
  % activity: 40%
Brachiaria decumbens; BRADC, Ex. 26 solo 125 gai/ha, 20 DAT
  % activity: 30% and 40%
Brachiaria decumbens; Ex. 26 solo 62.5 gai/ha, 20 DAT, BRADC (pyridate table)
  % activity: 20%
Brachiaria decumbens; Ex. 26 solo 62.5 gai/ha, 20 DAT, BRADC (pyroxsulam table)
  % activity: 0%
Brachiaria decumbens; Ex. 26 solo 62.5 gai/ha, 21 DAT, BRADC
  % activity: 0%
Brachiaria decumbens; Ex. 26 solo 125 gai/ha, 20 DAT, BRADC (pyridate table)
  % activity: 40%
Brachiaria decumbens; Ex. 26 solo 125 gai/ha, 20 DAT, BRADC (pyroxsulam table)
  % activity: 20%
Brachiaria decumbens; Ex. 26 solo 125 gai/ha, 21 DAT, BRADC
  % activity: 0%
Brachiaria decumbens; Ex. 26 solo 250 gai/ha, 20 DAT, BRADC (pyroxsulam table)
  % activity: 35%
Brachiaria decumbens; Ex. 26 solo, 125 gai/ha, 20 DAT, BRADC
  % activity: 0%
Brachiaria decumbens; Ex. 26 solo, 125 gai/ha, 21 DAT, BRADC
  % activity: 10%
Brachiaria decumbens; Ex. 26 solo, 250 gai/ha, 20 DAT, BRADC
  % activity: 30%
Brachiaria decumbens; Ex. 26 solo, 250 gai/ha, 21 DAT, BRADC
  % activity: 40%
Polygonum convolvulus; 20 DAT, Ex. 26 solo 250 gai/ha
  % activity: 30%
Polygonum convolvulus; 20 DAT, POLCO, Ex. 26 solo 62.5 gai/ha
  % activity: 65%
Polygonum convolvulus; 20 DAT, POLCO, Ex. 26 solo 125 gai/ha
  % activity: 85% and 80%
Polygonum convolvulus; 21 DAT, Ex. 26 solo 125 gai/ha
  % activity: 0%
Polygonum convolvulus; Ex. 26 solo 62.5 gai/ha, 20 DAT, POLCO
  % activity: 30%
Polygonum convolvulus; Ex. 26 solo 62.5 gai/ha, 21 DAT, POLCO
  % activity: 0%
Polygonum convolvulus; Ex. 26 solo 125 gai/ha, 20 DAT, POLCO
  % activity: 90%
Polygonum convolvulus; Ex. 26 solo 125 gai/ha, 21 DAT, POLCO
  % activity: 0%
Polygonum convolvulus; Ex. 26 solo, 125 gai/ha, 20 DAT, POLCO
  % activity: 5%
Polygonum convolvulus; Ex. 26 solo, 125 gai/ha, 21 DAT, POLCO
  % activity: 35%
Polygonum convolvulus; Ex. 26 solo, 250 gai/ha, 20 DAT, POLCO
  % activity: 30%
Polygonum convolvulus; Ex. 26 solo, 250 gai/ha, 21 DAT, POLCO
  % activity: 85%
Polygonum convolvulus; POLCO, 21 DAT, solo Ex. 26 62.5 gai/ha
  % activity: 0%
Polygonum convolvulus; POLCO, 21 DAT, solo Ex. 26 125 gai/ha
  % activity: 35%
Polygonum convolvulus; POLCO, 21 DAT, solo Ex. 26 250 gai/ha
  % activity: 85%
Matricaria chamomilla; [1]
  % activity: 0%
Matricaria chamomilla; 20 DAT, Ex. 26 solo 125 gai/ha
  % activity: 0%
Matricaria chamomilla; 20 DAT, Ex. 26 solo 250 gai/ha
  % activity: 0%
Matricaria chamomilla; 20 DAT, MATCH, Ex. 26 solo 62.5 gai/ha
  % activity: 0%
Matricaria chamomilla; 20 DAT, MATCH, Ex. 26 solo 125 gai/ha
  % activity: 0%
Matricaria chamomilla; 20 DAT, MATCH, Ex. 26 solo 250 gai/ha
  % activity: 0%
Matricaria chamomilla; 21 DAT, Ex. 26 solo 250 gai/ha
  % activity: 0%
Matricaria chamomilla; Ex. 26 solo 62.5 gai/ha, 20 DAT, MATCH (pyridate table)
  % activity: 0%
Matricaria chamomilla; Ex. 26 solo 62.5 gai/ha, 20 DAT, MATCH (pyroxsulam table)
  % activity: 0%
Matricaria chamomilla; Ex. 26 solo 125 gai/ha, 20 DAT, MATCH (pyridate table)
  % activity: 0%
Matricaria chamomilla; Ex. 26 solo 125 gai/ha, 20 DAT, MATCH (pyroxsulam table)
  % activity: 0%
Matricaria chamomilla; Ex. 26 solo 250 gai/ha, 20 DAT, MATCH (pyridate table)
  % activity: 0%
Matricaria chamomilla; Ex. 26 solo 250 gai/ha, 20 DAT, MATCH (pyroxsulam table)
  % activity: 30%
Matricaria chamomilla; Ex. 26 solo 250 gai/ha, 21 DAT, MATCH
  % activity: 0%
Matricaria chamomilla; Ex. 26 solo, 125 gai/ha, 20 DAT, MATCH
  % activity: 0%
Matricaria chamomilla; Ex. 26 solo, 250 gai/ha, 20 DAT, MATCH
  % activity: 0%
Matricaria chamomilla; Ex. 26 solo, 250 gai/ha, 21 DAT, MATCH
  % activity: 20%
Matricaria chamomilla; MATCH, 21 DAT, solo Ex. 26 62.5 gai/ha
  % activity: 0%
Matricaria chamomilla; MATCH, Ex. 26 solo 62.5 gai/ha, 20 DAT
  % activity: 0%

Reference: patent publication US10966426B2, “Herbicidal compositions comprising phenylpyrimidines” (BASF SE, priority 2016, dated 2021)
